# Assays:
# [1] = target: T1, MMP-9 (Mus musculus, UniProt P41245); test: MMP-9 enzyme activity after SCI in mice (SensoLyte 520 fluorimetric assay); assay type: in vivo; settings: for suppression of MMP-9 activity in CSF / suppression of MMP-9 activity in serum / suppression of MMP-9 activity in spinal cord tissues: DC injury; for suppression of MMP-9 activity in spinal cord tissues: lowest most effective dose; for lowest most effective dose: suppression of MMP-9 and MMP-12 activity
# T1 construct: from tissue; host or cells: mouse spinal cord lesion site homogenate, serum and CSF
# Procedure: For oral delivery of AZD1236, n=6 adult male C57BL6 mice/group (Charles River, Margate, UK) were randomly allocated to either: (1), Sham (control; partial laminectomy but no DC crush injury); (2), DC crush injury+vehicle (partial laminectomy followed by DC crush injury and injection of vehicle); (3), DC crush injury+100 mg/kg AZD1236; (4), DC crush injury+200 mg/kg AZD1236; and (5), DC crush injury+300 mg/kg AZD1236. For intrathecal (it) delivery of AZD1236, adult male C57BL6 mice (25-30 g) (Charles River, Margate, UK) were randomly allocated to either: (1), Sham (control; partial laminectomy but no DC crush injury); (2), DC crush injury+vehicle (partial laminectomy followed by DC crush injury and injection of vehicle); (3), DC crush injury+2.5 mg/kg AZD1236; (4), DC crush injury+5 mg/kg AZD1236; and (5), DC crush injury+10 mg/kg AZD1236. For intrathecal delivery an indwelling atlanto-occipital intrathecal catheter was inserted into the intrathecal space, as described previously (F. A. Oladosu, B. P. Ciszek, S. C. O'Buckley, A. G. Nackley, Novel intrathecal and subcutaneous catheter delivery systems in the mouse. J Neurosci Methods 264, 119-128 (2016)). Briefly, with mice in the sternal recumbency a small incision was made at the nape of the neck followed by detachment of the muscles on either side of the external occipital crest to expose the A-O membrane. The membrane was incised and a 6 cm Alzet mouse intrathecal catheter (Alzet, Cupertino, Calif., USA) and polyurethane segments were gently guided 2.5 cm into the intrathecal space. The catheter was secured using 4-0 silk sutures (Oasis Medical, IL) and the exposed end of the catheter was sealed off with a stainless-steel plug and affixed to the upper back. Animals were injected immediately with vehicle or AZD1236 followed by a 10 μl PBS catheter flush. Injections were repeated every twice daily for the first 3 days after injury and drugs and vehicle reagents were delivered over 1 min time period using a Hamilton microlitre syringe (Hamilton Co, USA). Where specified intact animals with no surgical procedures were also used. All lesions were administered under 5% isofluorane induced inhalation anaesthesia, with 1.51/min O2. Pre- and post-injury analgesia was also provided.
# DC crush injury was administered bilaterally at the T8 vertebral level as described previously (S. Surey, M. Berry, A. Logan, R. Bicknell, Z. Ahmed, Differential cavitation, angiogenesis and wound-healing responses in injured mouse and rat spinal cords. Neuroscience 275, 62-80 (2014); M. L. Read, S. Mir, R. Spice, R. J. Seabright, E. L. Suggate, Z. Ahmed, M. Berry, A. Logan, Profiling RNA interference (RNAi)-mediated toxicity in neural cultures for effective short interfering RNA design. J Gene Med 11, 523-534 (2009)). Briefly, calibrated watchmaker's forceps were separated by 0.5 mm and inserted through the dorsal cord meninges to a depth of 0.45 mm in mice and separated by 1 mm and inserted through the dorsal cord meninges to a depth of 1.0 mm in rats, and the DC were crushed for 3 seconds. AZD1236 or vehicle was administered twice daily by oral gavage or intrathecally, either immediately for the first 3 days or 24 hours after injury and treating twice daily until day 4 (i.e. 3 days of AZD1236 dosing). All experiments were performed with n=6 mice/group and repeated on at least 2-3 independent occasions (total=12-18 animals/group/test).
# CC SCI was administered at the T7-T8 vertebral level after exposure of T6-T9 by laminectomy. […]
# [2] = tested on: mice with DC crush injury; test: Immunohistochemistry of CD11b, CD68 and GFAP at lesion site; assay type: in vivo, mouse; settings: immediate or delayed by 24 h
# Source text: After killing animals by exposure to rising concentrations of CO2, mice were intracardially perfused with 4% formaldehyde (TAAB Laboratories, Berkshire, UK) in 0.1M phosphate buffered saline (PBS). The lesion site+5 mm either side were dissected out, post-fixed in 4% formaldehyde and subjected to a graded series of sucrose solutions for cryoprotection. Spinal cords were blocked in OCT mounting compound (TAAB laboratories), sectioned longitudinally at 15 μm-thick using a cryostat (Brights Instruments, Huntingdon, UK) before being collected on charged glass slides (ThermoFisher Scientific, Loughborough, UK) and kept at −20° C. until required. Slides were numbered consecutively and sections from the middle of the lesion site were chosen for all immunohistochemical analyses, as described by previously (Surey S, Berry M, Logan A, Bicknell R, Ahmed Z. Differential cavitation, angiogenesis and wound-healing responses in injured mouse and rat spinal cords. Neuroscience 2014; 275: 62-80).
# Fluorescent immunohistochemistry was performed as described previously (S. Surey, M. Berry, A. Logan, R. Bicknell, Z. Ahmed, Differential cavitation, angiogenesis and wound-healing responses in injured mouse and rat spinal cords. Neuroscience 275, 62-80 (2014)). […] Laminin was detected at 4 weeks after DC injury and treatment using a rabbit polyclonal anti-laminin primary antibody (ab11575; 1:400 dilution, Abcam). Macrophages were detected with a rabbit polyclonal anti-CD68 antibody (ab1525212; 1:500 dilution, Abcam); microglia were detected using a rabbit polyclonal antibody to CD11b (ab128797, 1:500 dilution, Abcam); GFAP was detected using a polyclonal anti-GFAP antibody (SAB5700611, 1:400 dilution, Sigma) were all detected at 10 days after DC injury and treatment. Semaphorin-3A (Sema-3A) and chondroitin sulphate proteoglycan (CSPG) was detected using monoclonal anti-CS-56 antibody (C8035; 1:200 dilution, Sigma) at 7 days after injury. […] CTB labelled axons in the mouse were detected using a goat polyclonal anti-CTB antibody (#703; 1:1000 dilution, List Biological Labs) at 6 weeks after DC injury. […]
# T1 sequence (P41245 108-730): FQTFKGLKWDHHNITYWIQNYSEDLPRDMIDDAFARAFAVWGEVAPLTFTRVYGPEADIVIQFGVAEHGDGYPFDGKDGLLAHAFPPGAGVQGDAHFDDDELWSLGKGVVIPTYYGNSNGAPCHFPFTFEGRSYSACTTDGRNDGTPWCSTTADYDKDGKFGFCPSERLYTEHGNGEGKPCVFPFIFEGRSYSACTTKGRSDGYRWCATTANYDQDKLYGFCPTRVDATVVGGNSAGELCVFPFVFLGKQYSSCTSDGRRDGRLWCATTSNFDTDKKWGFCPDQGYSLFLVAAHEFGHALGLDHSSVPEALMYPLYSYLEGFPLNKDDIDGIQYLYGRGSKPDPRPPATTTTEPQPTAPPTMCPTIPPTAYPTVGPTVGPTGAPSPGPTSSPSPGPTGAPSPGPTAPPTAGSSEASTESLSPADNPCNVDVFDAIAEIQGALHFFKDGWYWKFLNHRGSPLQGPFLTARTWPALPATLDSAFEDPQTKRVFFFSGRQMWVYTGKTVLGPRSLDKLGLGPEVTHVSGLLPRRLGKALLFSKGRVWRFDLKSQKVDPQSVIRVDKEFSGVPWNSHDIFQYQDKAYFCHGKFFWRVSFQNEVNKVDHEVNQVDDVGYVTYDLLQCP
smiles,measurement,setting,value
C[C@]1(CS(=O)(=O)N2CC=C(C#Cc3cnc(C4CC4)nc3)CC2)NC(=O)NC1=O [AZD1236],suppression of MMP-9 activity in CSF,[1]; intrathecal delivery,88±2%
same,suppression of MMP-9 activity in serum,[1]; intrathecal delivery,71±2%
same,suppression of MMP-9 activity in spinal cord tissues,[1]; intrathecal,87±5%
same,suppression of MMP-9 activity in CSF,"[1]; oral delivery, 200 mg/kg",74±2%
same,suppression of MMP-9 activity in serum,"[1]; oral delivery, 200 mg/kg",90±2%
same,suppression of MMP-9 activity in spinal cord tissues,[1]; oral,88±4%
same,time for MMP-9 activity to return to DC+Vehicle injury levels after withdrawal,"[1]; injury site, oral dosing withdrawn after 3 d",4 days
same,lowest most effective dose,[1]; intrathecal injection,5 mg/kg
same,"MMP-9 activity, 24-h delayed treatment","[1]; optimal doses, 24 h delay vs immediate",equally as effective as immediate delivery
same,lowest most effective dose,[1]; oral administration,200 mg/kg
same,CD11b immunoreactivity at the lesion site,[2],significantly reduced
same,CD68 immunoreactivity at the lesion site,[2],significantly reduced
same,GFAP+ immunoreactivity at the lesion site,[2],significantly reduced

# — patent publication US20230255943A1, “MMP-9 AND MMP-12 INHIBITION FOR TREATING SPINAL CORD INJURY OR RELATED INJURY TO NEUROLOGICAL TISSUE” (The University of Birmingham, priority 2020, published 2023)
